Experiments:
[1] = test system: Eleventh-passage human periodontal membrane cells; test: Migratory capacity of senescent cells of human periodontal membrane (TAXIscan-FL, SDF1 gradient); type: cell-based; conditions: 48 hours, n=4, control 53.8 ± 4.6
Protocol: Eleventh-passage human periodontal membrane cells were plated in DMEM containing 10% FBS in collagen-coated 35 mm dishes (IWAKI) at a density of 2×10^4 cells/ml. After 20 hours, an ALK5 inhibitor (SB431542) was added to a final concentration of 10 ng/μl. Further, a CCR3 antagonist (SB328437) was added to a final concentration of 5 ng/μl. After 48 hours, the cells were detached, and Real-time horizontal chemotaxis analysis was performed using TAXIscan-FL (Effector Cell Institute, Tokyo) so as to measure the migratory capacity. Specifically, channels optimized (8 μm) for the size of cells are formed between a silicon plate having 6 μm pores and a glass plate, and 1 μl of treated periodontal membrane cells (10^5 cells/ml) was injected to one end portion of an associated one of the channels (n=4). Then, 1 μl of 10 ng/μl SDF1 was placed on the opposite side portion so as to form a certain constant concentration gradient. Based on the video images of migration, the number of migrating cells after 12 hours was measured.

[2] = test system: Eleventh-passage human periodontal ligament cells; test: Expression of migratory capacity-related factors in senescent cells of human periodontal membrane (real-time RT-PCR); type: cell-based; conditions: control = 1
Protocol: Eleventh-passage human periodontal ligament cells were plated in DMEM containing 10% FBS in collagen-coated 35 mm dishes (IWAKI) at a density of 2×10^4 cells/ml. After 20 hours, ALK5 inhibitor (SB431542) was added to final concentrations of 5 ng/μl and 10 ng/μl. Further, CCR3 antagonist (SB328437) was added to final concentrations of 5 ng/μl and 10 ng/μl. After 48 hours, mRNA was extracted, and real-time RT-PCR was performed on senescence markers, namely p16, p53, IL6, IL1b, IL8, and TNFα (Table 4).
Real-time RT-PCR was performed on migratory capacity-related factors, namely, MMP9, MMP3, and MMP2 (Table 8) using mRNA similar to that described in 2 above.

[3] = test system: post-pulpectomy root canal of a tooth of the canine; test: Dental pulp regeneration after pulpectomy, allogeneic transplantation of dental pulp stem cells with root canal filler containing ALK5 inhibitor or CCR3 antagonist; type: in vivo, dog
Source text: For each tooth, the root canal was enlarged with #50-55 to the apex, and was washed alternately with a 5% sodium hypochlorite solution and a 3% hydrogen peroxide solution, followed by washing with physiologic saline. The root canal was completely dried with paper points, and hemorrhage was controlled. The root canal was completely closed with a temporary seal of cement and resin. After 7 to 14 days following the pulpectomy, the temporary seal was removed, and the root canal underwent alternate washing and with physiologic saline. Smearclean was then allowed to react for 2 minutes. The root canal was then further washed with physiologic saline, and dried. A root canal filler was prepared by suspending 1×10^6 allogenic dental pulp stem cells, which had been membrane-separated, in 40 μl of a scaffold (Koken Atelocollagen Implant, KOKEN CO., LTD.), and by suspending 3 μl of a 100 μg/ml G-CSF (NEUTROGIN, Chugai Pharmaceutical Co., Ltd.). Further, an ALK5 inhibitor (SB431542, 200 ng) was added to part of the root canal filler. A CCR3 antagonist (SB328437, 200 ng) was added to another part of the root canal filler. The root canal filler with the ALK5 inhibitor or the CCR3 antagonist was injected into associated root canal such that no air bubbles were involved. A hemostatic gelatin sponge (Spongel) was put on the root canal filler. The cavity was completely sealed with cement and resin. After 14 days and 60 days following the transplantation, the teeth were extracted. According to a common method, 5 μm paraffin sections of longitudinal cross section were prepared. The paraffin sections were then H-E stained to undergo morphological observation. Amounts of regenerated dental pulp of four sections were measured for each sample, and an average amount of three samples (14-day samples) or an average amount of four samples (60-day samples) was determined to be the amount of regenerated dental pulp of the respective sample. To analyze angiogenesis, the 60-day samples were immunostained with BS-1 lectin. To analyze neurite outgrowth, the 60-day samples were immunostained with PGP 9.5.

[4] = test system: Fourth-passage human dental pulp cells; test: Migration promotion of dental pulp cells by culture supernatant of senescent dental pulp stem cells (TAXIscan-FL); type: cell-based; conditions: 1 μl DPSC CM containing 1 μl of 20 mg/ml compound as attractant; n=4; non 5.0 ± 1.0
Protocol: Non-separated 22nd-passage human dental pulp stem cells were brought into a state of 50% confluence. The medium was replaced with a serum-free medium. After 24 hours, the culture conditioned medium was collected. The supernatant was concentrated approximately 40-fold using Amicon Ultra-15 Centrifugal Filter Unit with Ultracel-3 membrane (Millipore, Billerica, Mass.) with 3-kDa molecular cut. Proteinase inhibitors (Halt™ proteinase inhibitor cocktail EDTA-free, Thermo Scientific, Rockford, Ill., USA) was added. The mixture was dispended to be stored at −80° C. Protein content was measured using Bradford Ultra™ (Expedeon, Cambridge, UK).
Fourth-passage human dental pulp cells were plated in DMEM containing 10% FBS in 10 cm dishes (FALCON) at 2×10^4 cells/ml. After 48 hours, the cells were detached, and a real-time horizontal chemotaxis analysis was performed using TAXlscan-FL (Effector Cell Institute, Tokyo) to measure the migratory capacity. Specifically, channels optimized (8 μm) for the size of the cells were formed between a silicon plate having 6 μm pores and a glass plate, and 1 μl of treated dental pulp cells (10^5 cells/ml) was injected to one end portion of each of the channels (n=4). As a control, one of the channels received nothing at the opposite end portion. […] Based on the video images of migration, the number of migrating cells after 12 hours was measured.

[5] = canine of middle or advanced age, 200 ng in root canal filler, after 14 days, vs filler without
[6] = canine of middle or advanced age, 200 ng in root canal filler, after 60 days, vs filler without
[7] = canine of middle or advanced age, 200 ng, after 60 days

Structure (SMILES) | number of migrating cells after 12 hours, Average ± SD ([1]; final concentration 10 ng/μl) | MMP2 expression (migratory capacity-related factor) ([2]; 5 ng/μl) | MMP3 expression (migratory capacity-related factor) ([2]; 5 ng/μl) | MMP9 expression (migratory capacity-related factor) ([2]; 5 ng/μl) | MMP2 expression (migratory capacity-related factor) ([2]; 10 ng/μl) | MMP3 expression (migratory capacity-related factor) ([2]; 10 ng/μl) | MMP9 expression (migratory capacity-related factor) ([2]; 10 ng/μl) | amount of regenerated dental pulp tissue [3, 5] | amount of regenerated dental pulp tissue [3, 6] | density of angiogenesis (BS-1 lectin) [3, 7] | number of migrating cells after 12 hours, Average ± SD [4] | number of migrating cells after 12 hours, Average ± SD ([1]; final concentration 5 ng/μl) | neurite outgrowth (PGP 9.5) [3, 7] | amount of regenerated dental pulp tissue ([3]; canine of young age, 200 ng, after 14 days)
NC(=O)c1ccc(-c2nc(-c3ccc4c(c3)OCO4)c(-c3ccccn3)[nH]2)cc1 [ALK5 inhibitor, SB431542] | 21.3 ± 10.9 | 0.93 | 1.08 | 0.10 | 1.02 | 0.96 | 0.06 | significant increase | significant increase | significant increase | 12.7 ± 2.1 |  |  | 
COC(=O)[C@H](Cc1ccc([N+](=O)[O-])cc1)NC(=O)c1cccc2ccccc12 [CCR3 antagonist, SB328437] |  | 0.54 | 2.34 | 0 | 0.75 | 0.54 | 0.63 | significant increase | significant increase |  | 23.7 ± 5.1 | 23.3 ± 10.7 | significant increase | did not cause any significant increase
